# Laboratory results published in ChEMBL document CHEMBL1201861, “Genomics of Drug Sensitity in Cancer screening data, Wellcome Trust Sanger Institute”.
# Key:
# Assay in all cases: cells
# Assay type in all cases: functional, cell-based, Homo sapiens
# [1] = test system: BV-173; conditions: Homo sapiens, BV-173
# Description: SANGER: Inhibition of human BV-173 cell growth in a cell viability assay.
# [2] = test system: RPMI-8866; conditions: Homo sapiens, RPMI-8866
# Description: SANGER: Inhibition of human RPMI-8866 cell growth in a cell viability assay.
# [3] = test system: LB996-RCC; conditions: Homo sapiens, LB996-RCC
# Description: SANGER: Inhibition of human LB996-RCC cell growth in a cell viability assay.
# [4] = test system: ETK-1; conditions: Homo sapiens, ETK-1;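 also: growth inhibition of human ETK-1 cells, read out with a cell viability assay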
# Description: SANGER: Inhibition of human ETK-1 cell growth in a cell viability assay.
# [5] = test system: NCI-H1581; conditions: Homo sapiens, NCI-H1581;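 also: cell growth inhibition read out by a viability assay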
# Description: SANGER: Inhibition of human NCI-H1581 cell growth in a cell viability assay.
# [6] = test system: MZ1-PC; conditions: Homo sapiens, MZ1-PC;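 also: cell viability assay measuring growth inhibition of human MZ1-PC cells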
# Description: SANGER: Inhibition of human MZ1-PC cell growth in a cell viability assay.
# [7] = test system: CTB-1; conditions: Homo sapiens, CTB-1
# Description: SANGER: Inhibition of human CTB-1 cell growth in a cell viability assay.
# [8] = test system: HCC2157; conditions: Homo sapiens, HCC2157;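 also: growth inhibition of the cancer cell line, read out as cell viability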
# Description: SANGER: Inhibition of human HCC2157 cell growth in a cell viability assay.
# [9] = test system: RXF 393; conditions: Homo sapiens, RXF 393;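 also: growth inhibition of human RXF 393 cells, read out with a cell viability assay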
# Description: SANGER: Inhibition of human RXF393 cell growth in a cell viability assay.
# [10] = test system: VA-ES-BJ; conditions: Homo sapiens, VA-ES-BJ;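 also: growth inhibition of the VA-ES-BJ cell line, read out by a cell viability assay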
# Description: SANGER: Inhibition of human VA-ES-BJ cell growth in a cell viability assay.
# [11] = test system: HT; conditions: Homo sapiens, HT
# Description: SANGER: Inhibition of human HT cell growth in a cell viability assay.
# [12] = test system: C8166; conditions: Homo sapiens, C8166;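 also: growth inhibition of human C8166 cells measured by a cell viability assay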
# Description: SANGER: Inhibition of human C8166 cell growth in a cell viability assay.
# [13] = test system: ES1; conditions: Homo sapiens, ES1;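 also: growth inhibition of ES1 cells, read out with a cell viability assay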
# Description: SANGER: Inhibition of human ES1 cell growth in a cell viability assay.
# [14] = test system: TE-5; conditions: Homo sapiens, TE-5;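 also: inhibition of cell growth, read out by a cell viability assay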
# Description: SANGER: Inhibition of human TE-5 cell growth in a cell viability assay.
# [15] = test system: JVM-2; conditions: Homo sapiens, JVM-2;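 also: growth inhibition of JVM-2 cells determined by a cell viability assay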
# Description: SANGER: Inhibition of human JVM-2 cell growth in a cell viability assay.
# [16] = test system: GAK; conditions: Homo sapiens, GAK;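 also: cell growth inhibition read out by a cell viability assay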
# Description: SANGER: Inhibition of human GAK cell growth in a cell viability assay.
# [17] = test system: HL-60; conditions: Homo sapiens, HL-60;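 also: growth inhibition of human HL-60 cells, read out with a cell viability assay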
# Description: SANGER: Inhibition of human HL-60 cell growth in a cell viability assay.
# [18] = test system: NMC-G1; conditions: Homo sapiens, NMC-G1;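 also: growth inhibition of the NMC-G1 cell line, measured with a cell viability read-out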
# Description: SANGER: Inhibition of human NMC-G1 cell growth in a cell viability assay.
# [19] = test system: KLE; conditions: Homo sapiens, KLE;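 also: growth inhibition of human KLE cells, read out with a cell viability assay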
# Description: SANGER: Inhibition of human KLE cell growth in a cell viability assay.
# [20] = test system: EC-GI-10; conditions: Homo sapiens, EC-GI-10
# Description: SANGER: Inhibition of human EC-GI-10 cell growth in a cell viability assay.
# [21] = test system: TK-10; conditions: Homo sapiens, TK-10;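 also: growth inhibition of TK-10 cells, read out in a cell viability assay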
# Description: SANGER: Inhibition of human TK10 cell growth in a cell viability assay.
# [22] = test system: L-363; conditions: Homo sapiens, L-363
# Description: SANGER: Inhibition of human L-363 cell growth in a cell viability assay.
# [23] = test system: SBC-1; conditions: Homo sapiens, SBC-1;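 also: cell viability assay measuring growth inhibition of the SBC-1 cell line, IC50 being the concentration that halves growth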
# Description: SANGER: Inhibition of human SBC-1 cell growth in a cell viability assay.
# [24] = test system: NCI-H1155; conditions: Homo sapiens, NCI-H1155;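 also: cell growth inhibition measured by a viability assay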
# Description: SANGER: Inhibition of human NCI-H1155 cell growth in a cell viability assay.
# [25] = test system: NB5; conditions: Homo sapiens, NB5;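 also: growth inhibition of NB5 cells, read out as cell viability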
# Description: SANGER: Inhibition of human NB5 cell growth in a cell viability assay.
# [26] = test system: NCI-H69; conditions: Homo sapiens, NCI-H69;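 also: growth inhibition of the cell line, read out with a cell viability assay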
# Description: SANGER: Inhibition of human NCI-H69 cell growth in a cell viability assay.
# [27] = test system: TE-10; conditions: Homo sapiens, TE-10;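 also: growth inhibition of TE-10 cells, measured by a cell viability assay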
# Description: SANGER: Inhibition of human TE-10 cell growth in a cell viability assay.
# [28] = test system: UACC-257; conditions: Homo sapiens, UACC-257
# Description: SANGER: Inhibition of human UACC-257 cell growth in a cell viability assay.
# [29] = test system: NCI-H1092; conditions: Homo sapiens, NCI-H1092;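 also: cell growth inhibition measured with a cell viability assay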
# Description: SANGER: Inhibition of human NCI-H1092 cell growth in a cell viability assay.
# [30] = test system: LB1047-RCC; conditions: Homo sapiens, LB1047-RCC;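 also: inhibition of cell growth, determined with a cell viability assay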
# Description: SANGER: Inhibition of human LB1047-RCC cell growth in a cell viability assay.
# [31] = test system: NB6; conditions: Homo sapiens, NB6;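 also: growth inhibition of NB6 cells, read out by a cell viability assay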
# Description: SANGER: Inhibition of human NB6 cell growth in a cell viability assay.
# [32] = test system: D-247MG; conditions: Homo sapiens, D-247MG
# Description: SANGER: Inhibition of human D-247MG cell growth in a cell viability assay.
# [33] = test system: MN-60; conditions: Homo sapiens, MN-60;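 also: growth inhibition of the MN-60 cell line, determined with a cell viability assay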
# Description: SANGER: Inhibition of human MN-60 cell growth in a cell viability assay.
# [34] = test system: COLO-800; conditions: Homo sapiens, COLO-800;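 also: growth inhibition of COLO-800 cells, read out with a cell viability assay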
# Description: SANGER: Inhibition of human COLO-800 cell growth in a cell viability assay.
# [35] = test system: MMAC-SF; conditions: Homo sapiens, MMAC-SF;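 also: growth inhibition of human MMAC-SF cells, read out with a cell viability assay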
# Description: SANGER: Inhibition of human MMAC-SF cell growth in a cell viability assay.
# [36] = test system: TE-9; conditions: Homo sapiens, TE-9;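 also: cell growth inhibition, measured with a cell viability readout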
# Description: SANGER: Inhibition of human TE-9 cell growth in a cell viability assay.
# [37] = test system: LS-123; conditions: Homo sapiens, LS-123
# Description: SANGER: Inhibition of human LS-123 cell growth in a cell viability assay.
# [38] = test system: COLO-320-HSR; conditions: Homo sapiens, COLO-320-HSR;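 also: growth inhibition of COLO-320-HSR cells, determined with a cell viability assay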
# Description: SANGER: Inhibition of human COLO-320-HSR cell growth in a cell viability assay.
# [39] = test system: no-11; conditions: Homo sapiens;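 also: growth inhibition of human NO-11 cells, read out with a cell viability assay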
# Description: SANGER: Inhibition of human no-11 cell growth in a cell viability assay.
# [40] = test system: SW684; conditions: Homo sapiens, SW684;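 also: growth inhibition of human SW684 cells, measured by a cell viability assay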
# Description: SANGER: Inhibition of human SW684 cell growth in a cell viability assay.
# [41] = test system: NCI-H209; conditions: Homo sapiens, NCI-H209;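 also: growth inhibition of human NCI-H209 cells, measured by a cell viability assay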
# Description: SANGER: Inhibition of human NCI-H209 cell growth in a cell viability assay.
# [42] = test system: ES4; conditions: Homo sapiens, ES4;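 also: growth inhibition of human ES4 cells, read out by a cell viability assay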
# Description: SANGER: Inhibition of human ES4 cell growth in a cell viability assay.
# [43] = test system: COLO-829; conditions: Homo sapiens, COLO-829
# Description: SANGER: Inhibition of human COLO-829 cell growth in a cell viability assay.
# [44] = test system: SK-MEL-1; conditions: Homo sapiens, SK-MEL-1;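 also: growth inhibition of human SK-MEL-1 cells, read out by a cell viability assay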
# Description: SANGER: Inhibition of human SK-MEL-1 cell growth in a cell viability assay.
# [45] = test system: NH-12; conditions: Homo sapiens, NH-12;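 also: growth inhibition of NH-12 cells, read out with a cell viability assay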
# Description: SANGER: Inhibition of human NH-12 cell growth in a cell viability assay.
# [46] = test system: SF-268; conditions: Homo sapiens, SF-268;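 also: growth inhibition of SF-268 cells determined with a cell viability assay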
# Description: SANGER: Inhibition of human SF268 cell growth in a cell viability assay.
# [47] = test system: DOHH-2; conditions: Homo sapiens, DOHH-2;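 also: growth inhibition of human DOHH-2 cells, read out with a cell viability assay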
# Description: SANGER: Inhibition of human DOHH-2 cell growth in a cell viability assay.
smiles,measurement,setting,value
Cc1ccc(-c2c(C(=O)CCl)n(CCCO)c3ncnc(N)c23)cc1,IC50,[1],> 4000 nM
same,IC50,[2],> 4000 nM
same,IC50,[3],> 4000 nM
same,IC50,[4],> 4000 nM
same,IC50,[5],> 4000 nM
same,IC50,[6],2920 nM
same,IC50,[7],1620 nM
same,IC50,[8],> 4000 nM
same,IC50,[9],> 4000 nM
same,IC50,[10],> 4000 nM
same,IC50,[11],> 4000 nM
same,IC50,[12],> 4000 nM
same,IC50,[13],> 4000 nM
same,IC50,[14],> 4000 nM
same,IC50,[15],> 4000 nM
same,IC50,[16],> 4000 nM
same,IC50,[17],> 4000 nM
same,IC50,[18],> 4000 nM
same,IC50,[19],> 4000 nM
same,IC50,[20],> 4000 nM
same,IC50,[21],1950 nM
same,IC50,[22],> 4000 nM
same,IC50,[23],> 4000 nM
same,IC50,[24],> 4000 nM
same,IC50,[25],> 4000 nM
same,IC50,[26],> 4000 nM
same,IC50,[27],> 4000 nM
same,IC50,[28],> 4000 nM
same,IC50,[29],> 4000 nM
same,IC50,[30],> 4000 nM
same,IC50,[31],> 4000 nM
same,IC50,[32],> 4000 nM
same,IC50,[33],> 4000 nM
same,IC50,[34],> 4000 nM
same,IC50,[35],> 4000 nM
same,IC50,[36],> 4000 nM
same,IC50,[37],> 4000 nM
same,IC50,[38],> 4000 nM
same,IC50,[39],> 4000 nM
same,IC50,[40],> 4000 nM
same,IC50,[41],> 4000 nM
same,IC50,[42],> 4000 nM
same,IC50,[43],> 4000 nM
same,IC50,[44],> 4000 nM
same,IC50,[45],> 4000 nM
same,IC50,[46],> 4000 nM
same,IC50,[47],2700 nM
COc1cc2ncn(-c3cc(OCc4ccccc4C(F)(F)F)c(C(N)=O)s3)c2cc1OC [GW843682X],IC50,[1],17.7 nM
same,IC50,[2],> 256 nM
same,IC50,[3],104 nM
same,IC50,[4],17.3 nM
same,IC50,[5],30.5 nM
same,IC50,[6],22.2 nM
same,IC50,[7],> 256 nM
same,IC50,[8],> 256 nM
same,IC50,[9],105 nM
same,IC50,[10],22.7 nM
same,IC50,[11],128 nM
same,IC50,[12],> 256 nM
same,IC50,[13],25 nM
same,IC50,[14],23.4 nM
same,IC50,[15],> 256 nM
same,IC50,[16],185 nM
same,IC50,[17],25.2 nM
same,IC50,[18],206 nM
same,IC50,[19],213 nM
same,IC50,[20],> 256 nM
same,IC50,[21],90.9 nM
same,IC50,[22],81.2 nM
same,IC50,[23],> 256 nM
same,IC50,[24],86.8 nM
same,IC50,[25],86.2 nM
same,IC50,[26],181 nM
same,IC50,[27],12.6 nM
same,IC50,[28],130 nM
same,IC50,[29],> 256 nM
same,IC50,[30],25.4 nM
same,IC50,[31],142 nM
same,IC50,[32],> 256 nM
same,IC50,[33],> 256 nM
same,IC50,[34],> 256 nM
same,IC50,[35],> 256 nM
same,IC50,[36],21.3 nM
same,IC50,[37],193 nM
same,IC50,[38],28.1 nM
same,IC50,[39],178 nM
same,IC50,[40],> 256 nM
same,IC50,[41],225 nM
same,IC50,[42],18.4 nM
same,IC50,[43],> 256 nM
same,IC50,[44],> 256 nM
same,IC50,[45],> 256 nM
same,IC50,[46],83 nM
same,IC50,[47],60.8 nM
CC(=O)O[C@H]1C(=O)[C@@]2(C)[C@H]([C@H](OC(=O)c3ccccc3)[C@]3(O)C[C@H](OC(=O)[C@H](O)[C@@H](NC(=O)c4ccccc4)c4ccccc4)C(C)=C1C3(C)C)[C@]1(OC(C)=O)CO[C@@H]1C[C@@H]2O [PACLITAXEL],IC50,[1],25.5 nM
same,IC50,[2],57.1 nM
same,IC50,[3],77.1 nM
same,IC50,[4],1.52 nM
same,IC50,[5],49.5 nM
same,IC50,[6],0.729 nM
same,IC50,[7],78.1 nM
same,IC50,[8],> 102 nM
same,IC50,[9],12.6 nM
same,IC50,[10],3 nM
same,IC50,[11],80.9 nM
same,IC50,[12],> 102 nM
same,IC50,[13],12.9 nM
same,IC50,[14],15 nM
same,IC50,[15],> 102 nM
same,IC50,[16],102 nM
same,IC50,[17],9.66 nM
same,IC50,[18],34.5 nM
same,IC50,[19],> 102 nM
same,IC50,[20],72.6 nM
same,IC50,[21],33.6 nM
same,IC50,[22],13.5 nM
same,IC50,[23],50.4 nM
same,IC50,[24],> 102 nM
same,IC50,[25],> 102 nM
same,IC50,[26],17.8 nM
same,IC50,[27],1.54 nM
same,IC50,[28],48.5 nM
same,IC50,[29],> 102 nM
same,IC50,[30],25.1 nM
same,IC50,[31],> 102 nM
same,IC50,[32],> 102 nM
same,IC50,[33],> 102 nM
same,IC50,[34],> 102 nM
same,IC50,[35],45.3 nM
same,IC50,[36],3.26 nM
same,IC50,[37],16.6 nM
same,IC50,[38],> 102 nM
same,IC50,[39],34.8 nM
same,IC50,[40],> 102 nM
same,IC50,[41],97.9 nM
same,IC50,[42],4.49 nM
same,IC50,[43],> 102 nM
same,IC50,[44],> 102 nM
same,IC50,[45],> 102 nM
same,IC50,[46],11.5 nM
same,IC50,[47],12 nM
